{"source": "paper PMC7123690", "about": "(HCV: The Journey from Discovery to a Cure, 2018)", "origin": "cited, not measured here", "key": {"CYP 2C19": {"test_system": "CYP 2C19", "conditions": "recombinant CYP 2C19"}, "[1]": {"conditions": "dog"}, "[2]": {"test_system": "individual recombinant CYP enzymes"}, "CYP 2C9": {"test_system": "CYP 2C9", "conditions": "recombinant CYP 2C9"}, "[3]": {"conditions": "HLM"}, "[4]": {"test": "not given", "remark": "listed apart in the source"}, "HCV NS3/4A GT-1a enzyme": {"molecular_target": "HCV NS3/4A GT-1a enzyme", "conditions": "read-out: IC50 GT-1a enzyme"}, "[5]": {"conditions": "rat, dog, and cynomolgus monkey plasma"}, "[6]": {"conditions": "dog LM"}, "[7]": {"test": "not given", "remark": "listed apart in the source"}, "[8]": {"conditions": "cynomolgus monkey LMs"}, "HCV": {"test_system": "HCV", "conditions": "combined with IFN-α, ribavirin (52), 2 and 3"}, "HCV GT-1": {"test_system": "HCV GT-1", "conditions": "HCV GT-1 patients"}, "[9]": {"test_system": "GT-1 and GT-4 replication", "conditions": "GT-1 and GT-4 replicons"}, "CYP 1A2": {"test_system": "CYP 1A2", "conditions": "recombinant CYP 1A2"}, "HCV GT-1b replicon": {"test_system": "HCV GT-1b replicon", "conditions": "read-out: EC50 GT-1b replicon"}, "[10]": {"conditions": "P-gp knockout mice"}, "[11]": {"conditions": "RLM"}, "CYP 2D6": {"test_system": "CYP 2D6", "conditions": "recombinant CYP 2D6"}, "[12]": {"conditions": "rat"}, "isolated rabbit hearts": {"test_system": "isolated rabbit hearts", "conditions": "for effects on HR and SNRT: 60 min perfusion"}, "[13]": {"test": "not given", "remark": "listed apart in the source"}, "[14]": {"test": "not given", "remark": "listed apart in the source"}, "[15]": {"test_system": "canine parainfluenza virus"}, "GT-1 HCV": {"test_system": "GT-1 HCV", "conditions": "120 mg dose, 12-h post-dose, GT-1 HCV patients"}, "[16]": {"test_system": "bovine viral diarrhea virus"}, "[17]": {"conditions": "anesthetized rabbits"}, "[18]": {"conditions": "dog", "remark": "listed apart in the source"}, "[19]": {"test_system": "cardiac ion channel and receptor screens"}, "[20]": {"conditions": "60-min perfusion protocol, 10 μM, similar to vehicle control"}}, "note": "Where two headings read alike, the source gives them in different places.", "data": [{"smiles": "C=C[C@@H]1C[C@]1(NC(=O)[C@@H]1C[C@@H](Oc2ncc(OC)c3ccc(Cl)cc23)CN1C(=O)[C@@H](NC(=O)OC(C)(C)C)C(C)(C)C)C(=O)NS(=O)(=O)C1CC1", "note": "[Compound 1, Asunaprevir]", "values": [{"measurement": "IC50", "setting": "CYP 2C19", "value": "> 40", "unit": "µM"}, {"measurement": "direct excretion into the bile", "setting": "[1]", "value": "22 % of the dose"}, {"measurement": "metabolic turnover by recombinant CYP enzymes", "setting": "[2]", "value": "significant metabolic turnover only by CYP 3A4"}, {"measurement": "plasma protein binding", "setting": "human plasma", "value": 98.8, "unit": "%"}, {"measurement": "IC50", "setting": "CYP 2C9", "value": "> 40", "unit": "µM"}, {"measurement": "turnover in LMs", "setting": "[3]", "value": "5.8 ± 1.8"}, {"measurement": "permeability in PAMPA", "setting": "[4]; pH = 5.5", "value": "> 473", "unit": "nm/s"}, {"measurement": "permeability in PAMPA", "setting": "[4]; pH = 7.4", "value": "> 492", "unit": "nm/s"}, {"measurement": "IC50", "setting": "HCV NS3/4A GT-1a enzyme", "value": 1, "unit": "nM"}, {"measurement": "IC50", "setting": "CYP 3A4; CYP 3A4, substrate probe 7-benzyloxy-trifluoromethylcoumarin (BFC)", "value": 29, "unit": "µM"}, {"measurement": "IC50", "setting": "CYP 3A4; CYP 3A4, substrate probe benzyloxyresorufin (BZR)", "value": 8, "unit": "µM"}, {"measurement": "IC50", "setting": "CYP 3A4; CYP 3A4, substrate probe midazolam", "value": 27, "unit": "µM"}, {"measurement": "plasma protein binding", "setting": "[5]", "value": "97.2–98.8%"}, {"measurement": "turnover in LMs", "setting": "[6]", "value": 4.7, "unit": "pmol/min/mg"}, {"measurement": "adverse events (AEs)", "setting": "[7]; NHVs, single doses 10-1,200 mg oral suspension", "value": "generally mild to moderate and comparable to the placebo controls"}, {"measurement": "cardiac safety analysis", "setting": "[7]; short duration SAD study", "value": "no evidence of an increased risk of adverse cardiac events"}, {"measurement": "turnover in LMs", "setting": "[8]", "value": "50 ± 22", "unit": "pmol/min/mg"}, {"measurement": "activity in combination studies", "setting": "HCV", "value": "additive or synergistic activity"}, {"measurement": "mean plasma HCV RNA decline", "setting": "HCV GT-1; single 50 mg dose", "value": 0.64, "unit": "log10 IU/mL"}, {"measurement": "mean plasma HCV RNA decline", "setting": "HCV GT-1; single 200 mg dose", "value": 2.26, "unit": "log10 IU/mL"}, {"measurement": "mean plasma HCV RNA decline", "setting": "HCV GT-1; single 600 mg dose", "value": 2.87, "unit": "log10 IU/mL"}, {"measurement": "EC50", "setting": "[9]", "value": "< 5", "unit": "nM"}, {"measurement": "IC50", "setting": "CYP 1A2", "value": "> 40", "unit": "µM"}, {"measurement": "EC50", "setting": "HCV GT-1b replicon", "value": 6, "unit": "nM"}, {"measurement": "oral bioavailability", "setting": "[10]", "value": "> 100", "unit": "%"}, {"measurement": "turnover in LMs", "setting": "[11]", "value": 4.9, "unit": "pmol/min/mg"}, {"measurement": "IC50", "setting": "CYP 2D6", "value": "> 40", "unit": "µM"}, {"measurement": "direct excretion into the bile", "setting": "[12]", "value": "9 % of the dose"}, {"measurement": "liver level 24-h post-dose", "setting": "[12]; oral", "value": 15.2, "unit": "µM"}, {"measurement": "maximal increase in SNRT", "setting": "isolated rabbit hearts; [20]", "value": 14, "unit": "%"}, {"measurement": "maximal reduction of heart rate", "setting": "isolated rabbit hearts; [20]", "value": 10, "unit": "%"}, {"measurement": "% HR change", "setting": "isolated rabbit hearts; perfusion concentration 10 μM", "value": "−4", "unit": "%"}, {"measurement": "% SNRT change", "setting": "isolated rabbit hearts; perfusion concentration 10 μM", "value": 5, "unit": "%"}]}, {"smiles": "C=C[C@@H]1C[C@]1(NC(=O)[C@@H]1C[C@@H](Oc2nccc3cc(OC)ccc23)CN1C(=O)[C@@H](NC(=O)OC(C)(C)C)C(C)(C)C)C(=O)NS(=O)(=O)C1CC1", "note": "[Compound 30]", "values": [{"measurement": "observed cardiovascular effects", "setting": "[13]; conscious telemetrized dogs, two 15 mpk doses", "value": "a reduction in heart rate and prolongation of the PR interval"}, {"measurement": "plasma exposure at which CV effects occurred", "setting": "[13]; estimated from non-telemeterized animals", "value": "approximately 12 μM"}, {"measurement": "oral bioavailability", "setting": "[1]; PO, 1 mpk", "value": 23, "unit": "%"}, {"measurement": "terminal t 1/2", "setting": "[14]; NHVs, single oral doses 10-120 mg", "value": "4 to 8", "unit": "h"}, {"measurement": "effects on cardiac function (electrocardiographic changes)", "setting": "[14]; one NHV and one HCV-infected patient, 120 mg dose", "value": "transient mild bradycardia, PR interval prolongation, and junctional rhythm disturbances"}, {"measurement": "activity in cell culture replication assay", "setting": "[15]", "value": "inactive"}, {"measurement": "affinity for plasma proteins", "setting": "human", "value": 99.1, "unit": "%"}, {"measurement": "mean decline in viral load", "setting": "GT-1 HCV", "value": 1.8, "unit": "log10 IU/mL"}, {"measurement": "activity in cell culture replication assay", "setting": "[16]", "value": "inactive"}, {"measurement": "activity in cell culture replication assay", "setting": "HIV-1", "value": "inactive"}, {"measurement": "decline in HR", "setting": "[17]; IV 1, 3 and 10 mpk each infused over 5 min", "value": 32, "unit": "bpm"}, {"measurement": "reduction in blood pressure from baseline", "setting": "[17]; not drug related, also seen in vehicle controls", "value": "14–23 mmHg"}, {"measurement": "EC50", "setting": "HCV GT-1b replicon", "value": 12, "unit": "nM"}, {"measurement": "affinity for plasma proteins", "setting": "[18]", "value": 98.2, "unit": "%"}, {"measurement": "oral bioavailability", "setting": "[12]", "value": 18, "unit": "%"}, {"measurement": "plasma t 1/2", "setting": "[12]", "value": 4.4, "unit": "h"}, {"measurement": "plasma level 24-h post-dose", "setting": "[12]; oral 20 mpk", "value": 8, "unit": "nM"}, {"measurement": "outcome of cardiac ion channel and receptor screens", "setting": "[19]", "value": "failed to identify a biochemical target"}, {"measurement": "decline in HR", "setting": "isolated rabbit hearts; 3 μM, ~12 min perfusion", "value": "−15", "unit": "bpm"}, {"measurement": "decline in HR", "setting": "isolated rabbit hearts; 10 μM, ~12 min perfusion", "value": "−23", "unit": "bpm"}, {"measurement": "effects on atrioventricular conduction time or QRS interval", "setting": "isolated rabbit hearts; 0.3-10 μM", "value": "no effects"}, {"measurement": "increase in SNRT", "setting": "isolated rabbit hearts; 3 and 10 μM, ~12 min perfusion", "value": "≥ 425", "unit": "ms"}, {"measurement": "effects on HR and SNRT", "setting": "isolated rabbit hearts; 0.1 μM", "value": "absent"}, {"measurement": "effects on HR and SNRT", "setting": "isolated rabbit hearts; 0.3 μM", "value": "attenuated"}, {"measurement": "effects on HR and SNRT", "setting": "isolated rabbit hearts; 1 μM", "value": "effects on HR and SNRT were observed"}, {"measurement": "% HR change", "setting": "isolated rabbit hearts; perfusion concentration 10 μM", "value": "−25", "unit": "%"}]}]}
